These results are taken from patent publication US20260240888A1, “METHODS AND PHARMACEUTICAL COMPOSITIONS FOR TREATING AGE-RELATED DISEASES” (Neurxstem, priority 2023, published 2026).

The conditions of series [1]: cited from earlier work.
The next series concerns PG-NNOP neural organoids. The series can be described thus: Gene expression (Ampliseq transcriptomics) in PG-NNOP neural organoids treated with drug. The series is classed as cell-based, human. An excerpt: Furthermore, in one embodiment RNA from neural organoids for Alzheimer's disease, are converted to DNA libraries and then the representative DNA libraries are sequenced using exon-specific primers for 20,814 genes using the AmpliSeq™ technique available commercially from ThermoFisher. Reads in counts per […] (cpm)<1 are considered background noise. All cpm data are normalized data and the reads are a direct representation of the abundance of the RNA for each gene. In another informative embodiment, RNA from neural organoids for Progeroid syndromes were converted to DNA libraries and then sequenced according to this protocol.
Neural Organoids derived from induced pluripotent stem cells derived from adult skin cells of AD, ADRD, MED, or Hutchinson Gilford progeria (PG) patients were grown in vitro for […] as previous described in U.S. Pat. No. 11,435,890, incorporated by reference in its entirety herein. Transcriptomic data from these neural organoids were obtained. Differences in expression of 20,814 genes expressed in the human genome were determined between these neural organoids and those from neural organoids from a normal individual human (an individual not having/diagnosed with AD, ADRD, MED, or Progeroid syndromes). Detailed data analysis using Gene Card and Pubmed data bases were performed. […] These genes comprise a suite of biomarkers for Alzheimer's disease.
Thus, given the overlap in transcriptomic profile of AD and PG, experiments were set out to test the effect of targeting this receptor on PG-NNOP. FAAH inhibitor PF-3845, which is known to raise endogenous levels of endocannabinoid anandamide receptor agonist anandamide and increase endocannabinoid anandamide receptor activity, was tested for effects on gene expression dysregulation in PG-NNOP platform cells as set forth herein (Table 7). […] As the log 2 fold numbers reveal, the direction of the change in gene expression was completely reversed in some biomarkers by PF-3845, or the change was reduced by PF-3845. Thus, PF-3845 was capable of reverting the biomarkers of PG to normalcy.
Expression of differentially expressed genes in PG-NNOP neural organoids compared to Normal-NNOP in culture for 12 weeks is shown, as well as expression of differentially expressed genes in PG-NNOP neural organoids with PF-3845 treatment compared to PG-NNOP without drug treatment in culture for 12 weeks. […] PG-NNOP neural organoids were incubated with vehicle (0.1% DMSO; control) or PF-3845 dissolved in DMSO at 10microM for 4 days and harvested for RNA extraction and gene expression analysis by Ampliseq™ (Thermofisher). Log 2 fold change with a positive value indicates a decrease in expression of a PG-NNOP gene when compared to Normal-NNOP or a PG-NNOP gene with FAAH-I compared to PG-NNOP without the drug treatment, and with a negative number indicates an increase in gene expression.
Expression of differentially expressed genes in PG-NNOP neural organoids compared to Normal-NNOP in culture for 12 weeks and expression of differentially expressed genes in PG-NNOP neural organoids with metformin treatment compared to PG-NNOP without drug treatment in culture for 12 weeks is shown. […] PG-NNOP neural organoids were incubated with vehicle (HBBS; control) or metformin dissolved in HBBS at 0.28 mg/ml for 4 days and harvested for RNA extraction and gene expression analysis by Ampliseq™ (Thermofisher). Log 2 fold change with a positive value indicates a decrease in expression of a PG-NNOP gene when compared to Normal-NNOP or a PG-NNOP gene with Metformin compared to PG-NNOP without the drug treatment, and with a negative number indicates an increase in gene expression.
Expression of differentially expressed genes in PG-NNOP neural organoids compared to Normal-NNOP in culture for 12 weeks and expression of differentially expressed genes in PG-NNOP neural organoids with rapamycin treatment compared to PG-NNOP without drug treatment in culture for 12 weeks is shown. […]

Series [2] relates to AD-NNOP-ApoE neural organoids. The series can be described thus: Gene expression (Ampliseq transcriptomics) in AD-NNOP-ApoE neural organoids treated with CGS-21680. The series is classed as cell-based, human.
Excerpt: Reads in counts per minute (cpm)<1 are considered background noise. All cpm data are normalized data and the reads are a direct representation of the abundance of the RNA for each gene.
Expression of differentially expressed genes in PG-NNOP neural organoids compared to Normal-NNOP in culture for 12 weeks.
The conditions of series [3]: cited from earlier work. The source holds these as a separate data set.
[4] abbreviates: 10microM, 4 days, vs PG-NNOP without drug, positive = decrease in expression.
The mark [5] stands for this setting: 50 nM, 4 days, vs PG-NNOP without drug, positive = decrease in expression.
Where [6] appears, read: 0.28 mg/ml, 4 days, vs PG-NNOP without drug, positive = decrease in expression.

Broadly, the IC50 is the concentration that gives 50% inhibition.

Counter-ions that a name gives are not always drawn.

Consider `COc1ccc(C2CNC(=O)C2)cc1OC1CCCC1` (stereo not drawn) [Rolipram], for which, in series [1], the IC50 is 800 nM.

As for `O=C(Nc1cccnc1)N1CCC(Cc2cccc(Oc3ccc(C(F)(F)F)cn3)c2)CC1` [PF-3845, N-3-Pyridinyl-4-[[3-[[5-(trifluoromethyl)-2-pyridinyl]oxy]phenyl]methyl]-1-piperidinecarboxamide], in the series on PG-NNOP neural organoids, the “effect on dysregulated gene expression in PG-NNOP” value (“effect … in PG-NNOP” for short) is recorded as “effective in correcting the gene expression that was altered in PG-NNOP”. In the series with PG-NNOP neural organoids (setting [4]), the “Log2 Fold Change of CDKN1A gene expression” value is 0.77, the “Log2 Fold Change of EZH2 gene expression” value is recorded as −0.5, the “Log2 Fold Change of ID2 gene expression” value is 0.35 and the “Log2 Fold Change of IDI1 gene expression” value is 1.15. In addition, in the series with PG-NNOP neural organoids (setting [4]), the “Log2 Fold Change of LMNB2 gene expression” value is given as −0.67, the “Log2 Fold Change of MT2A gene expression” value was determined as 2.77, the “Log2 Fold Change of SLC35F1 gene expression” value was −0.65 and the “Log2 Fold Change of SLC38A1 gene expression” value is −0.57. Further, the “Log2 Fold Change of USP31 gene expression” value in the series on PG-NNOP neural organoids (setting [4]) is reported as 0.62.

Consider `CCNC(=O)[C@H]1O[C@@H](n2cnc3c(N)nc(NCCc4ccc(CCC(=O)O)cc4)nc32)[C@H](O)[C@@H]1O` [CGS-21680, 2-p-(2-Carboxyethyl) phenethylamino-5′-N-ethylcarboxamidoadenosine hydrochloride hydrate], for which the “effect on dysregulation of SLC7A5 and MT2A” value in series [2] is reported as “the dysregulation was corrected”. For the same molecule, the “effect on gene expression dysregulated in both AD-ApoE-NNOP and PG-NNOP” value in series [2] (1 micromolar) is reported as “significantly altered gene expression”. In series [2] (direction towards normalcy), the “effect on changes in expression of SELENBP1 and RARB in AD-ApoE-NNOP” value is “reduced the changes in expression of both genes”. Moreover, the “soluble in 45% (w/v) aq 2-hydroxypropyl-β-cyclodextrin” value in series [3] (45% (w/v) aq 2-hydroxypropyl-β-cyclodextrin) is listed as ≤ 20 mg/mL. In series [3] (DMSO), the “soluble in DMSO” value is on record as “up to 3.4 mg/mL”.

Turning to `CO[C@H]1C[C@@H]2CC[C@@H](C)[C@@](O)(O2)C(=O)C(=O)N2CCCC[C@H]2C(=O)O[C@H]([C@H](C)C[C@@H]2CC[C@@H](O)[C@H](OC)C2)CC(=O)[C@H](C)/C=C(\C)[C@@H](O)[C@@H](OC)C(=O)[C@H](C)C[C@H](C)/C=C/C=C/C=C/1C` [Rapamycin], in the series on PG-NNOP neural organoids, the “effect … in PG-NNOP” value is “shifted the gene expression towards normalcy”. Also, in the series on PG-NNOP neural organoids (setting [5]), the “Log2 Fold Change of CDKN1A gene expression” value is given as 1.21, the “Log2 Fold Change of IDI1 gene expression” value is 1.48, the “Log2 Fold Change of LMNB2 gene expression” value was −0.96 and the “Log2 Fold Change of MT2A gene expression” value came to 3.23. In the series with PG-NNOP neural organoids (setting [5]), the “Log2 Fold Change of POLE3 gene expression” value stood at 0.75, the “Log2 Fold Change of SLC35F1 gene expression” value is −0.83, the “Log2 Fold Change of SLC38A1 gene expression” value is −1.15 and the “Log2 Fold Change of USP36 gene expression” value is given as 0.99.

For `CN(C)C(=N)NC(=N)N` [Metformin], the “effect … in PG-NNOP” value with PG-NNOP neural organoids is reported as “shifted the gene expression towards normalcy”. Also, in the series with PG-NNOP neural organoids (setting [6]), the “Log2 Fold Change of CDK1 gene expression” value is 0.52, the “Log2 Fold Change of CDKN1A gene expression” value was −0.35, the “Log2 Fold Change of DNAJC1 gene expression” value is reported as −0.26 and the “Log2 Fold Change of ID2 gene expression” value stood at 0.86. Also, in the series with PG-NNOP neural organoids (setting [6]), the “Log2 Fold Change of LMNB2 gene expression” value is reported as −0.42, the “Log2 Fold Change of MT2A gene expression” value was determined as 2.06, the “Log2 Fold Change of POGZ gene expression” value is 0.36 and the “Log2 Fold Change of POLE3 gene expression” value is recorded as −0.25. Besides, in the series on PG-NNOP neural organoids (setting [6]), the “Log2 Fold Change of SLC35F1 gene expression” value was −0.47, the “Log2 Fold Change of USP31 gene expression” value is 0.67, the “Log2 Fold Change of VCP gene expression” value is 0.33 and the “Log2 Fold Change of WRN gene expression” value stood at 0.71.

Take `CCNC(=O)[C@H]1O[C@@H](n2cnc3c(N)nc(C#CC[C@H]4CC[C@H](C(=O)OC)CC4)nc32)[C@H](O)[C@@H]1O` [Apadenoson, methyl (1R,4r)-4-(3-(6-amino-9-((2R,3R,4S,5S)-5-(ethylcarbamoyl)-3,4-dihydroxytetrahydrofuran-2-yl)-9H-purin-2-yl)prop-2-yn-1-yl)cyclohexane-1-carboxylate]: the “solubility in DMSO” value in series [3] (DMSO) is given as “Soluble in DMSO”.
